Data published in US20060069132A1, “Azolecarboxamide herbicides” (priority 2004, published 2006).

Experiments:
rice [1] = assay: Test C flooded paddy test; format: in vivo, Oryza sativa
How it was run: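 Postemergence sprays applied to plants 2 to 18 cm tall (1- to 4-leaf stage); paddy species grown to 2-leaf stage under flooding. After 12 to 14 days in greenhouse, visual rating versus untreated controls on 0–100 scale (0 no effect, 100 complete control).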

johnsongrass = assay: Test C pre-/postemergence herbicide test; format: in vivo, Sorghum halepense
How it was run: (§1)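 Preemergence: seeds planted and treated with compound in non-phytotoxic solvent with surfactant; postemergence: plants at 2 to 18 cm (1- to 4-leaf stage) sprayed likewise. Kept in greenhouse 12 to 14 days, then visually rated against controls, 0 (no effect) to 100 (complete control).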

soybean = assay: Test C pre-/postemergence herbicide test; format: in vivo, Glycine max
How it was run: as §1

rice [2] = assay: Test B pre-/postemergence herbicide test; format: in vivo, Oryza sativa
How it was run: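 Plants compared with untreated controls 13–15 days post-treatment and given a visual 0–100 injury score. Applications: preemergence to seeds; postemergence at 1- to 4-leaf (2–18 cm); paddy species flooded, 2-leaf stage. Vehicle non-phytotoxic, surfactant included.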

velvetleaf = assay: Test C pre-/postemergence herbicide test; format: in vivo, Abutilon theophrasti
How it was run: as §1

large crabgrass = assay: Test C pre-/postemergence herbicide test; format: in vivo, Digitaria sanguinalis
How it was run: as §1

kochia = assay: Test C pre-/postemergence herbicide test; format: in vivo, Kochia scoparia
How it was run: as §1

Surinam grass = assay: Test C pre-/postemergence herbicide test; format: in vivo, Urochloa decumbens
How it was run: as §1

goosegrass = assay: Test C pre-/postemergence herbicide test; format: in vivo, Eleusine indica
How it was run: as §1

pigweed = assay: Test C pre-/postemergence herbicide test; format: in vivo, Amaranthus retroflexus
How it was run: as §1

[3] = Preemergence, 500 g ai/ha, scale 0 to 100, 0 no effect, 100 complete control
[4] = 62 g ai/ha, preemergence, scale 0 to 100
[5] = 125 g ai/ha, scale 0 (no effect) to 100 (complete control), visual, 12 to 14 days, preemergence
[6] = 250 g ai/ha, scale 0-100, preemergence
[7] = 500 g ai/ha, scale 0 to 100 (0 no effect, 100 complete control), visual, 12 to 14 days, preemergence

## CCn1nc(C(C)(C)C)cc1C(=O)Nc1cccc2c1CN(C)C2=O [Compound 55, N-(2,3-dihydro-2-methyl-1-oxo-1H-isoindol-4-yl)-3-(1,1-dimethylethyl)-1-ethyl-1H-pyrazole-5-carboxamide]
Rice [1]; Oryza sativa, 62 g ai/ha, scale 0 to 100 (0 no effect, 100 complete control), read-out: Rice plant response rating
  plant injury at 62 g/ha: 0%
Rice [1]; Oryza sativa, 125 g ai/ha, scale of 0 to 100, 0 is no effect, 100 is complete control, read-out: Rice plant response rating
  plant injury at 125 g/ha: 0%
Rice [1]; Oryza sativa, 250 g ai/ha, scale of 0 to 100, 0 is no effect, 100 is complete control, read-out: Rice plant response rating
  plant injury at 250 g/ha: 15%
Rice [1]; Oryza sativa, 500 g ai/ha, visual rating after 12 to 14 days, scale 0 to 100 (0 no effect, 100 complete control), read-out: Plant response rating, Rice
  plant injury at 500 g/ha: 60%
johnsongrass; 62 g ai/ha, preemergence
  Plant response rating (0 = no effect, 100 = complete control), Johnsongrass: 0
johnsongrass; [3]
  Johnsongrass plant response rating: 100
johnsongrass; Sorghum halepense, pre-emergence, 125 g ai/ha, scale 0 (no effect) to 100 (complete control), visual, 12 to 14 days, read-out: Plant response rating, Johnsongrass
  pest or weed control at 125 g/ha: 75%
johnsongrass; Sorghum halepense, pre-emergence, 250 g ai/ha, scale 0 to 100 (0 no effect, 100 complete control), visual, 12 to 14 days, read-out: Plant response rating, Johnsongrass
  pest or weed control at 250 g/ha: 95%
soybean; 62 g ai/ha, preemergence
  Plant response rating (0 = no effect, 100 = complete control), Soybean: 0
soybean; Glycine max, pre-emergence, 125 g ai/ha, scale 0 (no effect) to 100 (complete control), visual, 12 to 14 days, read-out: Plant response rating, Soybean
  plant injury at 125 g/ha: 0%
soybean; Glycine max, pre-emergence, 250 g ai/ha, scale 0 to 100 (0 no effect, 100 complete control), visual, 12 to 14 days, read-out: Plant response rating, Soybean
  plant injury at 250 g/ha: 0%
soybean; [3]
  Soybean plant response rating: 20
Rice [2]; Oryza sativa, pre-emergence, 336 h, preemergence, 125 g ai/ha, 0 to 100 scale, 0 is no effect, 100 is complete control, read-out: Plant response rating, Rice
  plant injury at 125 g/ha: 50%
Rice [2]; Preemergence, 500 g ai/ha, scale 0 to 100
  Rice plant response rating: 70
velvetleaf; 62 g ai/ha, preemergence
  Plant response rating (0 = no effect, 100 = complete control), Velvetleaf: 0
velvetleaf; Abutilon theophrasti, pre-emergence, 125 g ai/ha, scale 0 (no effect) to 100 (complete control), visual, 12 to 14 days, read-out: Plant response rating, Velvetleaf
  pest or weed control at 125 g/ha: 0%
velvetleaf; Abutilon theophrasti, pre-emergence, 250 g ai/ha, scale 0 to 100 (0 no effect, 100 complete control), visual, 12 to 14 days, read-out: Plant response rating, Velvetleaf
  pest or weed control at 250 g/ha: 15%
velvetleaf; [3]
  Velvetleaf plant response rating: 100
Large crabgrass; 62 g ai/ha, preemergence
  Plant response rating (0 = no effect, 100 = complete control), Crabgrass, Large: 15
Large crabgrass; Digitaria sanguinalis, pre-emergence, 312 h, 125 g ai/ha, scale 0 (no effect) to 100 (complete control), visual, 12 to 14 days, read-out: Plant response rating, Crabgrass, Large
  pest or weed control at 125 g/ha: 90%
Large crabgrass; Digitaria sanguinalis, pre-emergence, 312 h, 250 g ai/ha, scale 0 to 100 (0 no effect, 100 complete control), visual, 12 to 14 days, read-out: Plant response rating, Crabgrass, Large
  pest or weed control at 250 g/ha: 95%
Large crabgrass; [3]
  Crabgrass, Large plant response rating: 100
kochia; 62 g ai/ha, preemergence
  Plant response rating (0 = no effect, 100 = complete control), Kochia: 25
kochia; Bassia scoparia, pre-emergence, 125 g ai/ha, scale 0 (no effect) to 100 (complete control), visual, 12 to 14 days, read-out: Plant response rating, Kochia
  pest or weed control at 125 g/ha: 80%
kochia; Bassia scoparia, pre-emergence, 250 g ai/ha, scale 0 to 100 (0 no effect, 100 complete control), visual, 12 to 14 days, read-out: Plant response rating, Kochia
  pest or weed control at 250 g/ha: 100%
kochia; [3]
  Kochia plant response rating: 100
Surinam grass; 62 g ai/ha, preemergence
  Plant response rating (0 = no effect, 100 = complete control), Surinam Grass: 0
Surinam grass; [3]
  Surinam Grass plant response rating: 100
Surinam grass; Urochloa decumbens, pre-emergence, 312 h, 125 g ai/ha, scale 0 (no effect) to 100 (complete control), visual, 12 to 14 days, read-out: Plant response rating, Surinam Grass
  pest or weed control at 125 g/ha: 25%
Surinam grass; Urochloa decumbens, pre-emergence, 312 h, 250 g ai/ha, scale 0 to 100 (0 no effect, 100 complete control), visual, 12 to 14 days, read-out: Plant response rating, Surinam Grass
  pest or weed control at 250 g/ha: 65%
goosegrass; 62 g ai/ha, preemergence
  Plant response rating (0 = no effect, 100 = complete control), Goosegrass: 0
goosegrass; Eleusine indica, pre-emergence, 312 h, 125 g ai/ha, scale 0 (no effect) to 100 (complete control), visual, 12 to 14 days, read-out: Plant response rating, Goosegrass
  pest or weed control at 125 g/ha: 50%
goosegrass; Eleusine indica, pre-emergence, 312 h, 250 g ai/ha, scale 0 to 100 (0 no effect, 100 complete control), visual, 12 to 14 days, read-out: Plant response rating, Goosegrass
  pest or weed control at 250 g/ha: 75%
goosegrass; [3]
  Goosegrass plant response rating: 95
pigweed; 62 g ai/ha, preemergence
  Plant response rating (0 = no effect, 100 = complete control), Pigweed: 95
pigweed; Amaranthus retroflexus, pre-emergence, 125 g ai/ha, scale 0 (no effect) to 100 (complete control), visual, 12 to 14 days, read-out: Plant response rating, Pigweed
  pest or weed control at 125 g/ha: 95%
pigweed; Amaranthus retroflexus, pre-emergence, 250 g ai/ha, scale 0 to 100 (0 no effect, 100 complete control), visual, 12 to 14 days, read-out: Plant response rating, Pigweed
  pest or weed control at 250 g/ha: 95%
pigweed; [3]
  Pigweed plant response rating: 95

## CCNC(=O)c1cccc(NC(=O)c2sc(C(C)(C)C)nc2CC)c1 [Compound 210]
Rice [1]; 62 g ai/ha, scale 0 to 100 (0 no effect, 100 complete control)
  Rice plant response rating: 35
Rice [1]; 125 g ai/ha, scale 0 to 100 (0 no effect, 100 complete control)
  Rice plant response rating: 55
Rice [1]; 250 g ai/ha, scale of 0 to 100, 0 is no effect, 100 is complete control
  Rice plant response rating: 75
Rice [1]; 500 g ai/ha, visual rating after 12 to 14 days, scale 0 to 100 (0 no effect, 100 complete control)
  Plant response rating, Rice: 75
johnsongrass; [4]
  Plant response rating, Johnsongrass: 5
johnsongrass; [5]
  Plant response rating, Johnsongrass: 20
johnsongrass; [6]
  Plant response rating, Johnsongrass: 50
johnsongrass; [7]
  Plant response rating, Johnsongrass: 70
soybean; [4]
  Plant response rating, Soybean: 0
soybean; [5]
  Plant response rating, Soybean: 0
soybean; [6]
  Plant response rating, Soybean: 0
soybean; [7]
  Plant response rating, Soybean: 0
Rice [2]; 125 g ai/ha, 0 = no effect, 100 = complete control, preemergence
  Rice plant response rating (0 to 100 scale): 60
Rice [2]; 500 g ai/ha, visual rating 0-100, 0 no effect, 100 complete control, preemergence
  Plant response rating, Rice: 80
velvetleaf; [4]
  Plant response rating, Velvetleaf: 0
velvetleaf; [5]
  Plant response rating, Velvetleaf: 0
velvetleaf; [6]
  Plant response rating, Velvetleaf: 60
velvetleaf; [7]
  Plant response rating, Velvetleaf: 80
Large crabgrass; [4]
  Plant response rating, Crabgrass, Large: 80
Large crabgrass; [5]
  Plant response rating, Crabgrass, Large: 80
Large crabgrass; [6]
  Plant response rating, Crabgrass, Large: 95
Large crabgrass; [7]
  Plant response rating, Crabgrass, Large: 100
kochia; [4]
  Plant response rating, Kochia: 0
kochia; [5]
  Plant response rating, Kochia: 90
kochia; [6]
  Plant response rating, Kochia: 90
kochia; [7]
  Plant response rating, Kochia: 95
Surinam grass; [4]
  Plant response rating, Surinam Grass: 0
Surinam grass; [5]
  Plant response rating, Surinam Grass: 5
Surinam grass; [6]
  Plant response rating, Surinam Grass: 10
Surinam grass; [7]
  Plant response rating, Surinam Grass: 50
goosegrass; [4]
  Plant response rating, Goosegrass: 50
goosegrass; [5]
  Plant response rating, Goosegrass: 80
goosegrass; [6]
  Plant response rating, Goosegrass: 95
goosegrass; [7]
  Plant response rating, Goosegrass: 95
pigweed; [4]
  Plant response rating, Pigweed: 100
pigweed; [5]
  Plant response rating, Pigweed: 100
pigweed; [6]
  Plant response rating, Pigweed: 100
pigweed; [7]
  Plant response rating, Pigweed: 100
